In brackets after ≈: the same amount, converted by molar mass. Like-named read-outs stand apart in the source and are kept apart here.
Tests used:
Assay in all cases: MIC (Minimum Inhibitory Concentration)
Type in all cases: cell-based
[1] = test system: Trichophyton schoenleinii; settings: read-out: MIC values
Excerpt: (§1) In addition they may be used for combatting plant diseases, in particular as fungicides. A list of MIC (Minimum Inhibitory Concentration) values for a number of microorganisms is listed herebelow. The figures in the column headings refer to the compounds prepared according to the experimental examples in comparison with the spectrum of 1-[2-(2,4-dichlorophenyl)-2-{(2,4-dichlorophenyl)-methoxy} -ethyl7-1H-imidazole (better known under the name of miconazole, c.f. Merck Index 9th Ed. page 6047) or natamycin (pimaricin, c.f. Merck Index 9th Ed. page 7233).

Pasteurella multocida = settings: read-out: MIC values
Excerpt: as §1

Trichophyton violoceum = settings: read-out: MIC values
Excerpt: as §1

Trichophyton verrucosum = test system: Trichophyton verrucosum
Excerpt: as §1

Candida albicans = test system: Candida albicans
Excerpt: as §1

[2] = test system: Trichophyton mentagrophytus
Excerpt: as §1

Trichophyton tonsurans = settings: read-out: MIC values
Excerpt: as §1

Trichophyton equinum = test system: Trichophyton equinum
Excerpt: as §1

Trichophyton rubrum = test system: Trichophyton rubrum
Excerpt: as §1

[3] = test system: Streptococcus haemolyticus; settings: read-out: MIC values
Excerpt: as §1

Trichophyton quickeaneum = settings: read-out: MIC values
Excerpt: as §1

[C-]#[N+]C(=C(CCCC)c1ccccc1)S(=O)(=O)c1ccc(C)cc1 [Example 19, 2-phenyl-1-isocyano-1-(4-toluenesulphonyl)-1-hexene]
MIC ([1]; Trichophyton schoenleinii 435-63): > 100 µg/mL
MIC (Pasteurella multocida; Pasteurella multocida A 723): > 100 µg/mL
MIC (Trichophyton violoceum; Trichophyton violoceum 442-62): > 100 µg/mL
MIC (Trichophyton verrucosum; Trichophyton verrucosum 134-66, read-out: MIC values): 3 µg/mL (≈ 8.84 µM)
MIC (Trichophyton verrucosum; Trichophyton verrucosum A 2922, read-out: MIC values): 3 µg/mL (≈ 8.84 µM)
MIC (Candida albicans; Candida albicans A 7, read-out: MIC values): 6 µg/mL (≈ 17.7 µM)
MIC (Candida albicans; Candida albicans A 3140, read-out: MIC values): 6 µg/mL (≈ 17.7 µM)
MIC (Candida albicans; Candida albicans A 3141, read-out: MIC values): 6 µg/mL (≈ 17.7 µM)
MIC (Candida albicans; Candida albicans A 3142, read-out: MIC values): 6 µg/mL (≈ 17.7 µM)
MIC (Candida albicans; Candida albicans A 3143, read-out: MIC values): 6 µg/mL (≈ 17.7 µM)
MIC (Candida albicans; Candida albicans A 3144, read-out: MIC values): > 100 µg/mL
MIC (Candida albicans; Candida albicans A 3145, read-out: MIC values): 6 µg/mL (≈ 17.7 µM)
MIC (Candida albicans; Candida albicans A 3165, read-out: MIC values): 6 µg/mL (≈ 17.7 µM)
MIC (Candida albicans; Candida albicans A 3166, read-out: MIC values): 6 µg/mL (≈ 17.7 µM)
MIC (Candida albicans; Candida albicans A 3167, read-out: MIC values): 50 µg/mL (≈ 147 µM)
MIC (Candida albicans; Candida albicans A 3168, read-out: MIC values): 6 µg/mL (≈ 17.7 µM)
MIC (Candida albicans; Candida albicans A 3169, read-out: MIC values): 3 µg/mL (≈ 8.84 µM)
MIC (Candida albicans; Candida albicans A 3171, read-out: MIC values): 3 µg/mL (≈ 8.84 µM)
MIC (Candida albicans; Candida albicans A 3184, read-out: MIC values): 50 µg/mL (≈ 147 µM)
MIC (Candida albicans; Candida albicans A 3190, read-out: MIC values): 6 µg/mL (≈ 17.7 µM)
MIC (Candida albicans; Candida albicans A 3191, read-out: MIC values): > 100 µg/mL
MIC (Candida albicans; Candida albicans A 3192, read-out: MIC values): 6 µg/mL (≈ 17.7 µM)
MIC (Candida albicans; Candida albicans A 3194, read-out: MIC values): 6 µg/mL (≈ 17.7 µM)
MIC (Candida albicans; Candida albicans A 3196, read-out: MIC values): 100 µg/mL (≈ 295 µM)
MIC ([2]; Trichophyton mentagrophytus 367-68, read-out: MIC values): > 100 µg/mL
MIC ([2]; Trichophyton mentagrophytus 421-67, read-out: MIC values): > 100 µg/mL
MIC ([2]; Trichophyton mentagrophytus A 3252, read-out: MIC values): > 100 µg/mL
MIC ([2]; Trichophyton mentagrophytus R 177, read-out: MIC values): > 100 µg/mL
MIC ([2]; Trichophyton mentagrophytus R 178, read-out: MIC values): > 100 µg/mL
MIC (Trichophyton tonsurans; Trichophyton tonsurans 561-50): 0.4 µg/mL (≈ 1.18 µM)
MIC (Trichophyton equinum; Trichophyton equinum 182-76, read-out: MIC values): > 100 µg/mL
MIC (Trichophyton equinum; Trichophyton equinum 441-51, read-out: MIC values): 3 µg/mL (≈ 8.84 µM)
MIC (Trichophyton rubrum; Trichophyton rubrum 218-65, read-out: MIC values): > 100 µg/mL
MIC (Trichophyton rubrum; Trichophyton rubrum 494-62, read-out: MIC values): > 100 µg/mL
MIC (Trichophyton rubrum; Trichophyton rubrum A 810, read-out: MIC values): > 100 µg/mL
MIC ([3]; Streptococcus haemolyticus A 1088): > 100 µg/mL
MIC (Trichophyton quickeaneum; Trichophyton quickeaneum A 2040): > 100 µg/mL

[C-]#[N+]C(=C1CCCCC1)S(=O)(=O)c1ccccc1 [Example 25, a-cyclohexylidene-a-benzenesulphonylmethyl-isocyanide]
MIC ([1]; Trichophyton schoenleinii): 0.8 µg/mL (≈ 3.06 µM)
MIC (Pasteurella multocida; Pasteurella multocida): 3 µg/mL (≈ 11.5 µM)
MIC (Trichophyton violoceum; Trichophyton): 3 µg/mL (≈ 11.5 µM)
MIC (Candida albicans; read-out: MIC values, Candida albicans A 7): 1.5 µg/mL (≈ 5.74 µM)
MIC (Candida albicans; read-out: MIC values, Candida albicans A 3140): 1.5 µg/mL (≈ 5.74 µM)
MIC (Candida albicans; read-out: MIC values, Candida albicans A 3141): 1.5 µg/mL (≈ 5.74 µM)
MIC (Candida albicans; read-out: MIC values, Candida albicans A 3142): 1.5 µg/mL (≈ 5.74 µM)
MIC (Candida albicans; read-out: MIC values, Candida albicans A 3143): 1.5 µg/mL (≈ 5.74 µM)
MIC (Candida albicans; read-out: MIC values, Candida albicans A 3144): 3 µg/mL (≈ 11.5 µM)
MIC (Candida albicans; read-out: MIC values, Candida albicans A 3145): 3 µg/mL (≈ 11.5 µM)
MIC (Candida albicans; read-out: MIC values, Candida albicans A 3165): 3 µg/mL (≈ 11.5 µM)
MIC (Candida albicans; read-out: MIC values, Candida albicans A 3166): 1.5 µg/mL (≈ 5.74 µM)
MIC (Candida albicans; read-out: MIC values, Candida albicans A 3167): 3 µg/mL (≈ 11.5 µM)
MIC (Candida albicans; read-out: MIC values, Candida albicans A 3168): 6 µg/mL (≈ 23 µM)
MIC (Candida albicans; read-out: MIC values, Candida albicans A 3169): 1.5 µg/mL (≈ 5.74 µM)
MIC (Candida albicans; read-out: MIC values, Candida albicans A 3171): 3 µg/mL (≈ 11.5 µM)
MIC (Candida albicans; read-out: MIC values, Candida albicans A 3184): 1.5 µg/mL (≈ 5.74 µM)
MIC (Candida albicans; read-out: MIC values, Candida albicans A 3190): 3 µg/mL (≈ 11.5 µM)
MIC (Candida albicans; read-out: MIC values, Candida albicans A 3191): 6 µg/mL (≈ 23 µM)
MIC (Candida albicans; read-out: MIC values, Candida albicans A 3192): 1.5 µg/mL (≈ 5.74 µM)
MIC (Candida albicans; read-out: MIC values, Candida albicans A 3194): 3 µg/mL (≈ 11.5 µM)
MIC (Candida albicans; read-out: MIC values, Candida albicans A 3196): 3 µg/mL (≈ 11.5 µM)
MIC ([2]; read-out: MIC values, Trichophyton mentagrophytus 367-68): 1.5 µg/mL (≈ 5.74 µM)
MIC ([2]; read-out: MIC values, Trichophyton mentagrophytus 421-67): 1.5 µg/mL (≈ 5.74 µM)
MIC ([2]; read-out: MIC values, Trichophyton mentagrophytus A 3252): 3 µg/mL (≈ 11.5 µM)
MIC ([2]; read-out: MIC values, Trichophyton mentagrophytus R 177): 3 µg/mL (≈ 11.5 µM)
MIC ([2]; read-out: MIC values, Trichophyton mentagrophytus R 178): 3 µg/mL (≈ 11.5 µM)
MIC ([2]; read-out: MIC values, Trichophyton mentagrophytus RRL 305): 3 µg/mL (≈ 11.5 µM)
MIC (Trichophyton tonsurans; Trichophyton tonsurans): 0.2 µg/mL (≈ 0.765 µM)
MIC (Trichophyton equinum; read-out: MIC values, Trichophyton equinum 182-76): 6 µg/mL (≈ 23 µM)
MIC (Trichophyton equinum; read-out: MIC values, Trichophyton equinum 856-71): 12.5 µg/mL (≈ 47.8 µM)
MIC (Trichophyton rubrum; read-out: MIC values, Trichophyton rubrum 218-65): 0.4 µg/mL (≈ 1.53 µM)
MIC (Trichophyton rubrum; read-out: MIC values, Trichophyton rubrum 494-62): 6 µg/mL (≈ 23 µM)
MIC (Trichophyton rubrum; read-out: MIC values, Trichophyton rubrum A 810): 0.4 µg/mL (≈ 1.53 µM)
MIC ([3]; Streptococcus): 25 µg/mL (≈ 95.7 µM)
MIC (Trichophyton quickeaneum; Trichophyton): 3 µg/mL (≈ 11.5 µM)

Source: patent EP0007672A1, “Isocyanoalkenes, process and useful intermediates for their preparation, pharmaceutical and fungicidal preparations containing those isocyanoalkenes and the use of the fungicidal preparations in agriculture” (GIST-BROCADES N.V., priority 1978, dated 1980)
